This is an account of results in patent US4636513A, “Isoxazole derivatives and medicaments containing these compounds” (Hoechst Aktiengesellschaft, priority 1984, dated 1987).

The subject of one data set is mice. Briefly: Acetic acid extension test on mice (analgesic action). As to conditions: Mus musculus, po; for responders at 158 mg/kg: read-out: Animals which showed analgesic effect in % after an oral dose of 158 mg/kg; for ED50: read-out: Analgesic action ED50, acetic acid extension test (Mouse). The method, then: (§1) (a) Acetic acid extension test on mice in accordance with the method of R. Koster et al., Fed. Prod.
(§2) Female mice of a N.M.R.I. strain with a body weight (BW) of between 21 and 28 g were used as the experimental animals. Groups of in each case 12 animals received 0.1 ml/10 g BW of a 0.6% strength acetic acid solution, injected intraperitoneally. The test substances were administered 30 minutes beforehand. Immediately after the acetic acid injection, the animals were placed individually and the typical extension movements occurring within 15 minutes were counted, these consisting of brief flexing of the abdominal muscles with withdrawal of the sides and subsequent extension of the rear of the body and of at least one rear extremity.
(§3) The test substances were administered orally in a volume of 10 ml/kg BW in 1% strength aqueous carboxymethylcellulose (CMC) suspension.

For data set [1], the system named is prostaglandin synthetases. As to conditions: cited from earlier work.
The test system of data set [2] is rats. The data set can be described thus: Modified Randall-Selitto hyperalgesia test on rats (analgesic action). As to conditions: Rattus norvegicus, po, 2 h, read-out: Analgesic action ED50, Randall-Selitto test (Rat). The method, then: (§4) (b) Modified Randall-Selitto hyperalgesia test on rats in accordance with the method of Atkinson et al., J. Pharm. Pharmac.
(§5) Male Sprague-Dawley rats with a body weight of 200 to 300 g were used as the experimental animals. The experimental animals were given a subplantar injection of 0.2 ml of brewer's yeast suspension (40% of yeast in 0.9% strength NaCl solution) into the left hind paw under mild ether anaesthesia. After 5 hours, the gait of the animals over a metal grating was evaluated according to the following scale:
(§6) The evaluation was effected by determining the percentage of animals evaluated with stage 1 or 0.5, two animals given 0.5 being regarded as showing an analgesic effect.
(§7) The test substances were administered orally, to animals which had been fasted for 15 hours, in CMC suspension in a volume of 10 ml/kg BW two hours before the evaluation of the animals. In order to exclude subjective influences, the evaluation was performed by two people independently of one another and without knowledge of the pretreatment of the animals (n=10/dose). The ED50 values were determined with the aid of linear regression in accordance with the method of Fieller and Sidak.

Experiment in data set [3]: as above
As to conditions: rat, in vivo, po. The method, then: as §4, §5, §6, §7

Another data set can be described thus: in vivo. Further details: species or system rat (male and female Wistar). As to conditions: po, rat, administered orally, read-out: Toxicity LD50. As for the experimental part:
The animals were used in the experiment after being fasted for about 18 hours and only received food again five hours after administration of the product. After a three-week observation period, they were sacrificed with chloroform and autopsied. The organs were assessed macroscopically. The test compounds were dissolved in 1% strength CMC suspension and administered to the rats through a stomach tube in a volume of 5 ml/kg BW.

Data set [4] in a line: Acetic acid extension test on mice (analgesic action). As to conditions: mouse, in vivo, po. As for the experimental part: as §1, §2, §3
Data set [5] in a line: Gastrointestinal ulcerogenicity. It is filed as in vivo, rat (male Sprague-Dawley). As to conditions: in vivo, po, rat. The method, then:
(§8) In this test on male Sprague-Dawley rats with a body weight of between 200 and 300 g, an increased sensitivity of the gastric mucosa toward the ulcerogenic action of non-steroid antiflammatories was induced by hunger stress (withdrawal of food for a total of 72 hours).
(§9) 48 hours before administration of the test substances, the food was withdrawn from the animals until the end of the experiment, the animals having free access to drinking water.
(§10) 24 hours after oral administration of the product, the animals were sacrificed and the stomachs were removed, cut along the lesser curvature, cleaned under running water and inspected for lesions in the mucous membrane. All the macroscopically visible lesions of the mucosa in the glandular atomach were regarded as ulcers. The proportion of animals with ulcers per dose was determined.
(§11) The test substances were administered as a solution in CMC suspension in a volume of 1 ml/100 g of body weight. The UD50 (dose at which 50% of the animals had ulcers) was determined with the aid of Probit analysis and the confidence range was determined by the method of Fieller.

In another data set the test system is isolated pig ureter. Briefly: Inhibition of potassium chloride-induced spasms on the isolated pig ureter. The source says:
In contrast, the compounds of the formula I exert a significant inhibiting action in this experimental design.

The test system of data set [6] is rats. The data set can be described thus: Antipyretic action, yeast fever test on rats. It is filed as in vivo, rat (female Sprague-Dawley). As to conditions: for Reduction in body temperature at 60 min / Reduction in body temperature at 120 min / Reduction in body temperature at 180 min / Reduction in body temperature at 240 min: rat, orally. The method, then: The investigations were carried out on female Sprague-Dawley rats with a body weight of 150 g and fed on drinking water ad libitum and a standard diet. […] The body temperature was measured rectally by means of second thermometers at room temperature (24° C.). The number of animals was n=6 per dose. The average reduction in body temperature in comparison with the simultaneous value of the untreated control animals was recorded.

In the next data set the test system is gastric mucosa. Briefly: Gastrointestinal ulcerogenicity. In kind it is in vivo, rat (male Sprague-Dawley). As to conditions: doses of up to 400 mg/kg, rat, oral. As for the experimental part:
as §8, §9, §10, §11

For data set [7] the following is noted: biliary, gastrointestinal and urogenital tract; cited from earlier work.

SMILES strings stand for the structures. Converted amounts (≈) assume the structure as drawn. Like-named read-outs stand apart in the source and are kept apart here. Where only a bound is given, the exact number is not on record here.

The ED50 is the dose at which the effect has come halfway, by size or by number of responders. As usually defined, the LD50 is the dose expected to kill half of the subjects tested.

Turning to `Cc1noc(C)c1C(=O)N1CCCCC1` [3,5-Dimethyl-4-isoxazole-carboxylic acid piperidide, reference compound], the responders at 158 mg/kg in the data set with mice was determined as 25%.
The same measure, in the same setting: the result for `CCN(CC)C(=O)c1cnoc1C` [5-Methyl-4-isoxazolecarboxylic acid N,N--diethylamide, reference compound] reads 25%.
Take `CC(=O)Oc1ccccc1C(=O)O` [Acetylsalicylic acid, reference compound]: the “Inhibition of peripheral prostaglandin biosynthesis” value in data set [1] is reported as “inhibitor of peripheral prostaglandin biosynthesis”. Also, the ED50 amounted to 182 mg/kg with rats [2] and 138 mg/kg in the data set with mice. For the same compound, the selectivity ratio was found to be 8.2 in data set [3] and 10.9 in [4]. Moreover, the LD50 at 504 h in the data set “in vivo” is 1500 mg/kg. The responders at 158 mg/kg in the data set with mice was determined as 48%. Besides, in data set [5] (administered orally, fasted, 24 h after administration, read-out: Ulcerogenicity UD50), the TD50 at 24 h was 31 mg/kg.
For `Cc1oncc1C(=O)N1CCCCC1` [Example 1, N-(5-Methyl-4-isoxazolylcarbonyl)-piperidine], the IC50 in the data set with isolated pig ureter (Sus scrofa, potassium chloride-induced spasms, read-out: ED50 (inhibition of spasms), concentration) came to 410 µg/mL (≈ 2110 µM). For the same compound, the “Reduction in fever in comparison with Paracetamol” value in the data set on rats [6] (50 mg/kg oral versus Paracetamol 100 mg/kg oral) is “both more powerful and clearly lasts longer than that of the comparison product Paracetamol”. Further, in the data set with rats [6] (50 mg/kg), the “Reduction in body temperature at 60 min” value is 1.3 °C, the “Reduction in body temperature at 120 min” value was found to be 1.6 °C, the “Reduction in body temperature at 180 min” value came to 1.3 °C and the “Reduction in body temperature at 240 min” value turned out to be 0.8 °C. Besides, in the data set with rats [6] (100 mg/kg), the “Reduction in body temperature at 60 min” value came out at 2.0 °C, the “Reduction in body temperature at 120 min” value was 2.0 °C, the “Reduction in body temperature at 180 min” value came to 1.5 °C and the “Reduction in body temperature at 240 min” value was 1.1 °C. Besides, the ED50 with rats [2] came out at 85 mg/kg. Besides, in the data set on mice, the ED50 was 45 mg/kg and the responders at 158 mg/kg is 83%. Also, the “Lesions of the mucous membrane” value in the data set on gastric mucosa was “no lesions of the mucous membrane were detected”. The compound also yielded a TD50 at 24 h in data set [5] of over 400 mg/kg.
Regarding `CCc1oncc1C(=O)N1CCCCC1` [Example 2, N-(5-Ethyl-4-isoxazolylcarbonyl)-piperidine], in the data set on mice, the responders at 158 mg/kg came to 83%.
On the same count and under the same terms, the same measure for `Cc1oncc1C(=O)N1CCCC1` [Example 3, N-(5-Methyl-4-isoxazolylcarbonyl)-pyrrolidine]: 83%; for `Cc1oncc1C(=O)N1CCC(C)CC1` [Example 4, 4-Methyl-1-(5-methyl-4-isoxazolylcarbonyl)-piperidine]: 67%.
Same read-out and setting: the result for `Cc1oncc1C(=O)N1CCSCC1` [Example 5, N-(5-Methyl-4-isoxazolylcarbonyl)-thiomorpholine] reads 59%; that for `Cc1oncc1C(=O)N1CCC(O)CC1` [Example 6, 4-Hydroxy-1-(5-methyl-4-isoxazolylcarbonyl)-piperidine], 50%; that for `O=C(c1cnoc1)N1CCCCC1` [Example 7, N-(4-Isoxazolylcarbonyl)-piperidine], 50%.
Same read-out and setting: the result for `O=C(c1cnoc1C(F)(F)F)N1CCCCC1` [Example 8, N-(5-Trifluoromethyl-4-isoxazolylcarbonyl)-piperidine] reads 75%; that for `CCCc1oncc1C(=O)N1CCCCC1` [Example 9, N-(5-Propyl-4-isoxazolylcarbonyl)-piperidine], 67%.
`Cc1oncc1C(=O)N1CCOCC1` [Example 10, N-(5-Methyl-4-isoxazolylcarbonyl)-morpholine]: the responders at 158 mg/kg with mice worked out at 42%.
As to `CC(=O)Nc1ccc(O)cc1` [Paracetamol, reference compound], the “Inhibiting effect on spasms” value in the data set on isolated pig ureter (potassium chloride) is given as “no inhibiting effect on spasms”. In the data set on rats [6] (100 mg/kg), the “Reduction in body temperature at 60 min” value is 1.3 °C, the “Reduction in body temperature at 120 min” value is 1.1 °C, the “Reduction in body temperature at 180 min” value was determined as 0.4 °C and the “Reduction in body temperature at 240 min” value stood at 0 °C. Moreover, the “Suitability for treating pain of spastic origin” value in data set [7] was “unsuitable for treating pain of spastic origin”. For the same compound, the ED50 in the data set on rats [2] came to 334 mg/kg. In the data set with mice, the ED50 is 155 mg/kg and the responders at 158 mg/kg was determined as 50%. The TD50 at 24 h in data set [5] was over 400 mg/kg.
